In patent publication US20250179059A1 (The Regents of the University of California, priority 2021, published 2025):
pIC50: −log10 of the molar value. Where two headings read alike, the source gives them in different places.

Key:
human BRD4 bromodomain I = target: T1, human BRD4 bromodomain I (Homo sapiens, UniProt O60885); test: Bromodomain binding assay (AlphaScreen), BRD4 BDI; details: Table C1
T1 construct: human BRD4 bromodomain I [residues 44-170]; host or cells: E. coli
Experimental: Bromodomain Binding Assay
The bromodomain binding assay utilizes AlphaScreen technology. Compounds compete with a biotinylated peptide ligand (from histone H4: aa 1-21, K5/K8/K12/K16Ac-biotin) for binding to a hexahistidine (His6)-tagged bromodomain. Peptide binding is detected by fluorescence signal after singlet oxygen energy transfer from peptide-bound AlphaScreen streptavidin-coated donor beads to His6-tagged bromodomain-bound nickel-chelate acceptor beads (PerkinElmer). Briefly, 8 μL 2.5× bromodomain (E. coli expressed, N-terminal His6-tagged human BRD4 bromodomain II [based on Genbank NM_058243, residues 349-460] or N-terminal His6-tagged human BRD4 bromodomain I [residues 44-170]) in reaction buffer (50 mM HEPES [pH 7.5], 100 mM NaCl, 0.05% CHAPS, 0.1% BSA, 1% DMSO) is added to wells of an assay plate (384-well low flange white, flat bottom, polystyrene microplate, Corning #3572; buffer only is added to some wells as a negative control). A compound concentration series (10 concentrations, 3-fold serial dilutions previously prepared in 100% DMSO, or 100% DMSO only negative control) is delivered to the assay plate with an Echo 550 acoustic liquid handler (Labcyte), followed by plate centrifugation and incubation for 30 minutes at room temperature. Then 4 μL 5× biotinylated peptide ligand is added, followed by plate centrifugation and gentle shaking for 30 minutes at room temperature to mix. After this incubation, 4 μL 5× donor beads are added, and the plate is centrifuged, followed by brief gentle shaking to mix. Finally, 4 μL 5× acceptor beads are added, and the plate is centrifuged, followed by gentle shaking for 60 minutes at room temperature in the dark. AlphaScreen signal (excitation/emission: 680 nm/520-620 nm) is detected with an EnSpire multimode plate reader (PerkinElmer). Percentage peptide binding is plotted as a function of concentration, and curve fitting is used to determine competitive compound binding ICsos.

[1] = target: T2, human BRD4 bromodomain II (Homo sapiens, UniProt O60885); test: Bromodomain binding assay (AlphaScreen), BRD4 BDII; details: AlphaScreen assay, read-out: BRD4 BDII IC50
T2 construct: human BRD4 bromodomain II [based on Genbank NM_058243, residues 349-460]; host or cells: E. coli
How it was run: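 First, His6-tagged BRD4 bromodomain (BDI residues 44-170 or BDII residues 349-460) is incubated with compound for 30 min at room temperature. Next the biotinylated H4 peptide is added for 30 min, then donor and acceptor beads, with 60 min in the dark before AlphaScreen reading and IC50 fitting.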

[2] = tested on: human SKM-1 acute myeloid leukemia cells; test: SKM-1 antiproliferation cell-based assay (ATPlite); details: Homo sapiens, SKM-1, 96 h, SKM-1 antiproliferation assay, 4 days, Table C2
How it was run: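 Log-phase cells in RPMI 1640/15% FBS were seeded at 34722 cells/mL and exposed for 4 days to nine-concentration DMSO serial dilutions in triplicate. Viability was read as ATP luminescence (ATPlite 1step), and IC50 values came from variable-slope non-linear regression.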

| SMILES | pIC50 (human BRD4 bromodomain I) | pIC50 ([1]; Table C1) | pIC50 ([1]; Table C2) | GI50 [2] |
| --- | --- | --- | --- | --- |
| CC(=O)Nc1ccc(-c2cccc(-c3ccnc(N4CCNCC4)c3)c2O)cc1F [Example 163, N-(3-fluoro-2′-hydroxy-3′-(2-(piperazin-1-yl)pyridin-4-yl)-[1,1′-biphenyl]-4-yl)acetamide] | < 7.00 | 8.00 to 9.00 | 8.00 to 9.00 | 30 to 300 nM |
| CN1CCN(c2ccc(-c3cc(F)cc(-c4ccnc(N5CCNCC5)c4)c3O)cc2Cl)C1=O [Example 297, 1-(3-chloro-5′-fluoro-2′-hydroxy-3′-(2-(piperazin-1-yl)pyridin-4-yl)-[1,1′-biphenyl]-4-yl)-3-methylimidazolidin-2-one] | < 7.00 | 8.00 to 9.00 | 8.00 to 9.00 | 30 to 300 nM |
| CC(=O)Nc1ccc(-c2cccc(-c3cccc(N4CCNCC4)c3)c2O)cc1F [Example 109, N-(3-Fluoro-2′-hydroxy-3″-(piperazin-1-yl)-[1,1′:3′,1″-terphenyl]-4-yl)acetamide] | < 7.00 | 8.00 to 9.00 | 8.00 to 9.00 | 300 to 3000 nM |
| C[C@@H]1CN(c2cc(-c3cc(F)cc(-c4ccc(-n5ccn(C)c5=O)c(Cl)c4)c3O)ccn2)CCN1 [Example 413, (R)-1-(3-chloro-5′-fluoro-2′-hydroxy-3′-(2-(3-methylpiperazin-1-yl)pyridin-4-yl)-[1,1′-biphenyl]-4-yl)-3-methyl-1H-imidazol-2(3H)-one] | < 7.00 | 9.00 to 11.00 | 9.00 to 11.00 | 0.3 to 30 nM |
| Cn1ccn(-c2ccc(-c3cc(F)cc(-c4ccnc(N5CCNCC5)c4)c3O)cc2Cl)c1=O [Example 365, 1-(3-chloro-5′-fluoro-2′-hydroxy-3′-(2-(piperazin-1-yl)pyridin-4-yl)-[1,1′-biphenyl]-4-yl)-3-methyl-1H-imidazol-2(3H)-one] | < 7.00 | 8.00 to 9.00 | 8.00 to 9.00 | 0.3 to 30 nM |
